Where only a bound is given, the exact number is not on record here.

The nature of series [1]: Cytotoxicity against human HepG2 2.2.15 cells infected with Hepatitis B virus assessed as reduction in cell growth by CCK8 assay. In kind it is toxicity, cell-based. (In general: Tetrazolium assays rely on reduction of a dye to a coloured formazan, in cell work by metabolically active cells.)
A short description of series [2]: Antiviral activity against Hepatitis B virus infected in human HepG2 2.2.15 cells assessed as inhibition of DNA replication. The series is classed as functional, cell-based.
The nature of series [3]: Selectivity index, ratio of CC50 for human HepG2.2.2.15 cells to IC50 for Hepatitis B virus infected in human HepG2.2.2.15 cells. In kind it is toxicity, cell-based. As to conditions: read-out: Selectivity Index.
The test system of series [4] is Hepatitis B virus. Nature of the series: Antiviral activity against lamivudine/entecavir-resistant Hepatitis B virus infected in human HepG2 A64 cells assessed as inhibition of DNA replication at 1 uM incubated for 72 hrs by RT PCR analysis. The series is classed as functional, organism-based. The following applies: for IC50: HepG2.A64, 72 h; for inhibition at 1 µM: HepG2.A64, dose 1 µM, time 72 hrs.

Series [5] deals with Hepatitis B virus. Nature of the series: Antiviral activity against wild type Hepatitis B virus infected in human HepG2.2.2.15 cells assessed as inhibition of DNA replication at 1 uM incubated for 72 hrs by RT PCR analysis. In kind it is functional.
Series [6] deals with T1, Toll-like receptor 8 (Homo sapiens) (UniProt Q9NR97).
T1 sequence (whole entry): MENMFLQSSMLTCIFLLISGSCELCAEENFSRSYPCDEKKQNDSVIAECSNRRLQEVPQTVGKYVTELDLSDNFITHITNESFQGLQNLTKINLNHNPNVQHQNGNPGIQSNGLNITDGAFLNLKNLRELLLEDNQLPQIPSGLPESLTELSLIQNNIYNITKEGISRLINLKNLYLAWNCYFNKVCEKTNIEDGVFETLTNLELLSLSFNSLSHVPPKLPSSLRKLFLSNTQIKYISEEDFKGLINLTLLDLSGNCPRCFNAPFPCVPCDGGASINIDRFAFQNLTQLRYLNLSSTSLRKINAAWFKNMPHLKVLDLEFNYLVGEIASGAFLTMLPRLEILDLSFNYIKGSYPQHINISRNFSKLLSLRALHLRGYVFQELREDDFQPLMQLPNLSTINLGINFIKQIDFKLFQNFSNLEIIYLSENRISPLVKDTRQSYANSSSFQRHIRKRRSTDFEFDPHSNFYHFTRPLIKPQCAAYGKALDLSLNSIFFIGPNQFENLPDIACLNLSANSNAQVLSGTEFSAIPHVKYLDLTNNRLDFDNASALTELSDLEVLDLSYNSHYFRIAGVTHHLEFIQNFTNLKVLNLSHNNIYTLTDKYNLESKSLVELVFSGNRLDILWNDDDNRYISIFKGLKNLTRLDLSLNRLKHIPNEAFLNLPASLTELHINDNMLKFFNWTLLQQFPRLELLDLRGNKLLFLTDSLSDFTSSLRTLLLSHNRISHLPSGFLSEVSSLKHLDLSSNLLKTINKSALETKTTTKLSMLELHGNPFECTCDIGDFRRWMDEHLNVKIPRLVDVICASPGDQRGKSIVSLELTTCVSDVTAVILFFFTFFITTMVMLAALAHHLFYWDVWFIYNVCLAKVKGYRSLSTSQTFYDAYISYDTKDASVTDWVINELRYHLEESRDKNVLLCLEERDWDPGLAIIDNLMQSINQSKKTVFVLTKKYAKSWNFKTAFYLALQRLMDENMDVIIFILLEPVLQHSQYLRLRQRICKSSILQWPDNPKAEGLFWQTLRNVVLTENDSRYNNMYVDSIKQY
As to the kind of experiment: Agonist activity at human TLR8 expressed in HEK293T cells co-transfected with NFKappaB luciferase and renilla plasmids assessed as NF-kappaB activation measured after 48 hrs by dual-luciferase reporter gene assay. In kind it is cell-based. The following applies: filed as agonist, DDE = dose-dependent effect.

A short description of series [7]: Antiviral activity against lamivudine/entecavir- resistant Hepatitis B virus infected in human HepG2 A64 cells assessed as inhibition of DNA replication. In kind it is functional, cell-based.
Series [8] can be described thus: Selectivity index, ratio of CC50 for human HepG2.2.2.15 cells to IC50 for lamivudine/entecavir-resistant Hepatitis B virus infected in human HepG2 A64 cells. As to conditions: HepG2.2.2.15 cells (CC50), read-out: Selectivity Index. The series is classed as toxicity, cell-based.

Regarding `CN1CCN(CCCOc2ccc3nc(SCc4cccc(F)c4)n(Cc4ccco4)c(=O)c3c2)CC1`, the CC50 in series [1] turned out to be 4.22 µM. The IC50 in series [2] turned out to be 0.99 µM. In addition, in series [3], the selectivity ratio is above 4.26.

Take `COc1ccccc1CSc1nc2ccc(OCCCOc3ccnc(N)n3)cc2c(=O)n1Cc1ccco1`: the values for the IC50 (in the series on Hepatitis B virus [4]; in series [2]; in series [7]) were 0.1 µM, 0.15 µM and 0.1 µM, respectively. Also, the inhibition at 1 µM is 77.3% in the series on Hepatitis B virus [4] and 80.9% with Hepatitis B virus [5]. In series [1], the 50% cytotoxic concentration (CC50) was above 10 µM. Also, the Activity result in series [6] was “Dde”. Besides, the selectivity ratio in series [3] was above 66.7; in series [8], above 100.

With `CCN(CC)CCOc1ccc2nc(SCc3ccccc3)n(Cc3cccs3)c(=O)c2c1`, in series [1], the CC50 was above 10 µM. The IC50 in series [2] worked out at 0.83 µM. Moreover, the selectivity ratio in series [3] amounted to 22.9.

As for `Nc1ccn([C@@H]2CS[C@H](CO)O2)c(=O)n1` [LAMIVUDINE], the CC50 in series [1] was above 100 µM. Also, the IC50 in series [2] is below 0.1 µM; in series [7], above 100 µM. In addition, in series [3], the selectivity ratio was above 1000.

For the compound `CN1CCN(CCCOc2ccc3nc(SCc4ccc(F)cc4)n(Cc4ccco4)c(=O)c3c2)CC1`, the CC50 in series [1] is 2.9 µM.

Regarding `Nc1nccc(OCCCOc2ccc3nc(SCc4ccccc4)n(Cc4ccco4)c(=O)c3c2)n1`, the IC50 was determined as 0.24 µM in the series on Hepatitis B virus [4], 0.31 µM in series [2] and 0.21 µM in series [7]. Further, the results for the inhibition at 1 µM in the series with Hepatitis B virus [4] and with Hepatitis B virus [5] were 75.3% and 79.3%, respectively. Moreover, the CC50 in series [1] was above 10 µM. Moreover, the figures for the selectivity ratio in series [3] and in series [8] were above 32.2 and above 41.7, respectively.

`COc1ccccc1CSc1nc2ccc(OCCCN3CCN(C)CC3)cc2c(=O)n1Cc1ccco1`: the CC50 in series [1] was above 10 µM.

In the case of `Nc1nccc(OCCCOc2ccc3nc(SCc4ccccc4)n(Cc4cccs4)c(=O)c3c2)n1`, in series [1], the CC50 is above 10 µM.

As for `COc1ccccc1CSc1nc2ccc(OCCCN3CCC(O)CC3)cc2c(=O)n1Cc1ccco1`, the CC50 in series [1] is above 10 µM.

As to `Nc1nccc(OCCCOc2ccc3nc(SCc4ccc(F)cc4)n(Cc4ccccc4)c(=O)c3c2)n1`, the CC50 in series [1] is above 10 µM.

As to `Nc1nccc(OCCCOc2ccc3nc(SCc4cccc(F)c4)n(Cc4ccccc4)c(=O)c3c2)n1`, the CC50 in series [1] is above 10 µM.

Take `Nc1nccc(OCCOc2ccc3nc(SCc4ccccc4)n(Cc4ccco4)c(=O)c3c2)n1`: in series [1], the CC50 was 1.25 µM.

Consider `Nc1nccc(OCCCOc2ccc3nc(SCc4ccccc4)n(CC4CCCCC4)c(=O)c3c2)n1`, for which the CC50 in series [1] was above 10 µM.

`O=c1c2cc(OCCCN3CCC(O)CC3)ccc2nc(SCc2ccccc2)n1Cc1ccco1`: the CC50 in series [1] is above 10 µM. In series [2], the IC50 is 0.7 µM. For the same compound, the selectivity ratio in series [3] is above 14.3.

Regarding `O=c1c2cc(OCCCN3CCC(O)CC3)ccc2nc(SCc2ccc(F)cc2)n1Cc1ccco1`, the CC50 in series [1] is above 10 µM.

For `Nc1nccc(OCCCOc2ccc3nc(SCc4ccccc4)n(Cc4ccccc4)c(=O)c3c2)n1`, the CC50 in series [1] is above 10 µM.

For `O=c1c2cc(OCCCN3CCC(O)CC3)ccc2nc(SCc2cccc(F)c2)n1Cc1ccco1`, in series [1], the half-maximal cytotoxic concentration (CC50) was determined as 1.83 µM. Moreover, in series [2], the IC50 came to 0.87 µM. Moreover, in series [3], the selectivity ratio was above 2.17.

On to `CN1CCN(CCCOc2ccc3nc(SCc4ccccc4)n(Cc4ccco4)c(=O)c3c2)CC1`, for which the CC50 in series [1] is above 10 µM. For the same compound, in series [2], the IC50 worked out at 0.63 µM. In series [3], the selectivity ratio was above 15.9.

Consider `Nc1nccc(OCCCCOc2ccc3nc(SCc4ccccc4)n(Cc4ccco4)c(=O)c3c2)n1`, for which the CC50 in series [1] is above 10 µM.

Broadly, the CC50 is the concentration that lowers cell viability or growth by half. By IC50 is commonly meant the point on the concentration scale where inhibition reaches its midpoint. Usually inhibition stands for the share of the control response that was lost under treatment.

Source of the values: ChEMBL document CHEMBL5154728, “Design and synthesis of novel quinazolinone derivatives as anti-HBV agents with TLR8 agonist effect” (Eur J Med Chem, 2022).
